Measurements as given in PMC8528301 (PLoS ONE, 2021).
Where “and” joins values, the source holds several entries; their conditions need not be identical. Identical values can stand only once.

Tests used:
[1] = Repeated discontinuous oral DEX PK study (another 60 mice); assay type: in vivo, mouse; settings: for share of mice with measurable DEX / share of mice with DEX plasma concentration below LLOQ: Days 3.5+10.5; for share of mice with DEX plasma concentration below LLOQ: LLOQ = 5 nM; for concentration at 3.5 day / concentration at 10.5 day / concentration at 17.5 day: 8 mg/L, Average ± S.D. of quantifiable samples
Protocol: 1 g/L of tetracycline (Sigma-Aldrich Inc, St. Louis, MO, USA) was added during both phases. Assuming that mice drink 5 mL of water per day, the dose they receive would be 1.6–2 mg/kg/day. […] At the end of in vivo procedures, all plasma samples were transferred from dry ice and stored at –80°C until analysis.

PXR = settings: cited from earlier work
[2] = DEX single oral gavage plasma pharmacokinetics (NLME modeling); settings: for DV (Dex oral gavage PK raw data): individual mice;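 on all read-outs here: plasma concentration-time data analysed by nonlinear mixed-effects modeling in Monolix with SAEM estimation, models built on apparent clearance, distribution volume and absorption rate constant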
Protocol: Blood was collected via saphenous/retro-orbital vein at time points: 0.25, 0.75, 0.5, 1, 1.5, 2, 4, 8, 16 hours after treatment. Three sets of mice were used for this experiment, where set 1 was sampled at 2,4,8 hr; set 2 at 0.25, 0.75, 1.5 hr; set 3 at 0.5, 1 and 16 hr. Samples were centrifuged at 10,000 rpm for 2 minutes, plasma was removed and stored at -80°C until further analysis.
Briefly, parameters and the Fisher Information Matrix (FIM) were estimated using the stochastic approximation expectation maximization (SAEM) algorithm, and the final log-likelihood estimated with importance sampling, all using the default Monolix initial settings, except that 1000 iterations were permitted for estimation of FIM using stochastic approximation. A variety of models were fit to the respective compound’s Ct data, parameterized using apparent clearances, volumes of distribution, and absorption rate constant as needed. […] A log-normal inter-individual and inter-occasion parameter distribution was assumed on selected supported parameters, with both on- and off-diagonal elements of parameter covariance matrices tested. Additive and/or proportional error models were tested and implemented as supported. Beal’s M3 method was used to fit any data that were below the LLOQ or above the upper limit of the assay range [20]. […] Additionally, Wald test P values were outputted for each covariate effect by the Monolix software.
Additionally, Wald test P values were outputted for each covariate effect by the Monolix software.

CYP3A4 = settings: in vitro metabolic studies; humans; cited from earlier work
[3] = oral dosing; monkeys; cited from earlier work
[4] = bile duct cannulated rats; no reference given; cited from earlier work

C[C@@H]1C[C@H]2[C@@H]3CCC4=CC(=O)C=C[C@]4(C)[C@@]3(F)[C@@H](O)C[C@]2(C)[C@@]1(O)C(=O)CO [DEX, dexamethasone]
share of mice with measurable DEX ([1]; female VD3 deficient): 100% | share of mice with DEX plasma concentration below LLOQ ([1]; female VD3 sufficient): 68% | concentration at 3.5 days ([1]; female, C57BL/6, mouse, plasma, oral, 8 mg/L in drinking water, DEX conc, individual mouse, repeated study, VD3 Suf, 3.5 Days): 52.8 nM | concentration at 10.5 days ([1]; female, C57BL/6, mouse, plasma, oral, 8 mg/L in drinking water, DEX conc, individual mouse, repeated study, VD3 Suf, 10.5 Days): 6.84 nM | concentration at 3.5 day ([1]; female, C57BL/6, mouse, plasma, oral, DEX conc, plasma, repeated study, VD3 Deficient, F, Day 3.5, n=15): 51.8 ± 86.8 nM | concentration at 10.5 day ([1]; female, C57BL/6, mouse, plasma, oral, DEX conc, plasma, repeated study, VD3 Deficient, F, Day 10.5, n=10): 116 ± 169 nM | concentration at 17.5 day ([1]; female, C57BL/6, mouse, plasma, oral, DEX conc, plasma, repeated study, VD3 Deficient, F, Day 17.5, n=5): 106 ± 65.5 nM | concentration at 3.5 day ([1]; female, C57BL/6, mouse, plasma, oral, DEX conc, plasma, repeated study, VD3 Sufficient, F, Day 3.5, n=5): 47.2 ± 9.15 nM | concentration at 10.5 day ([1]; female, C57BL/6, mouse, plasma, oral, DEX conc, plasma, repeated study, VD3 Sufficient, F, Day 10.5, n=3): 7.71 ± 1.12 nM | concentration at 17.5 day ([1]; female, C57BL/6, mouse, plasma, oral, DEX conc, plasma, repeated study, VD3 Sufficient, F, Day 17.5, n=5): 45.6 ± 27.2 nM | % BLQ ([1]; female, VD3 Def, 3.5 Days): 0% | % BLQ ([1]; female, VD3 Def, 10.5 Days): 0% | % BLQ ([1]; female, VD3 Def, 17.5 Days): 0% | % BLQ ([1]; female, VD3 Suf, 3.5 Days): 67% | % BLQ ([1]; female, VD3 Suf, 10.5 Days): 70% | % BLQ ([1]; female, VD3 Suf, 17.5 Days): 0% | share of mice with measurable DEX ([1]; male VD3 deficient): 96.5% | share of mice with DEX plasma concentration below LLOQ ([1]; male VD3 sufficient): 83% | concentration at 3.5 day ([1]; male, C57BL/6, mouse, plasma, oral, DEX conc, plasma, repeated study, VD3 Deficient, M, Day 3.5, n=13): 16 ± 16.6 nM | concentration at 10.5 day ([1]; male, C57BL/6, mouse, plasma, oral, DEX conc, plasma, repeated study, VD3 Deficient, M, Day 10.5, n=10): 48.7 ± 59.4 nM | concentration at 17.5 day ([1]; male, C57BL/6, mouse, plasma, oral, DEX conc, plasma, repeated study, VD3 Deficient, M, Day 17.5, n=5): 16.7 ± 7.19 nM | concentration at 3.5 day ([1]; male, C57BL/6, mouse, plasma, oral, DEX conc, plasma, repeated study, VD3 Sufficient, M, Day 3.5, n=5): 30.1 ± 14.4 nM | concentration at 17.5 day ([1]; male, C57BL/6, mouse, plasma, oral, DEX conc, plasma, repeated study, VD3 Sufficient, M, Day 17.5, n=5): 25.2 ± 8.2 nM | % BLQ ([1]; male, VD3 Def, 10.5 Days): 0% | % BLQ ([1]; male, VD3 Def, 17.5 Days): 0% | % BLQ ([1]; male, VD3 Suf, 10.5 Days): 100% | % BLQ ([1]; male, VD3 Suf, 17.5 Days): 0% | DEX conc, Average ± S.D. of quantifiable samples ([1]; plasma, repeated study, VD3 Deficient, F, Day 3.5, n=15): 51.832 nM | DEX conc, Average ± S.D. of quantifiable samples ([1]; plasma, repeated study, VD3 Deficient, F, Day 10.5, n=10): 116.245 nM | DEX conc, Average ± S.D. of quantifiable samples ([1]; plasma, repeated study, VD3 Deficient, F, Day 17.5, n=5): 105.912 nM | DEX conc, Average ± S.D. of quantifiable samples ([1]; plasma, repeated study, VD3 Deficient, M, Day 3.5, n=13): 15.9992 nM | DEX conc, Average ± S.D. of quantifiable samples ([1]; plasma, repeated study, VD3 Deficient, M, Day 10.5, n=10): 48.71 nM | DEX conc, Average ± S.D. of quantifiable samples ([1]; plasma, repeated study, VD3 Deficient, M, Day 17.5, n=5): 16.66 nM | DEX conc, Average ± S.D. of quantifiable samples ([1]; plasma, repeated study, VD3 Sufficient, F, Day 3.5, n=5): 47.222 nM | DEX conc, Average ± S.D. of quantifiable samples ([1]; plasma, repeated study, VD3 Sufficient, F, Day 10.5, n=3): 7.71 nM | DEX conc, Average ± S.D. of quantifiable samples ([1]; plasma, repeated study, VD3 Sufficient, F, Day 17.5, n=5): 45.604 nM | DEX conc, Average ± S.D. of quantifiable samples ([1]; plasma, repeated study, VD3 Sufficient, M, Day 3.5, n=5): 30.144 nM | DEX conc, Average ± S.D. of quantifiable samples ([1]; plasma, repeated study, VD3 Sufficient, M, Day 17.5, n=5): 25.19 nM | DEX conc, individual mouse ([1]; plasma, repeated study, female, VD3 Suf, 3.5 Days): BLQ (BLQ = BELOW the LLOQ, lower lmit of quantification = 5 nM dexamethasone) | DEX conc, individual mouse ([1]; plasma, repeated study, female, VD3 Suf, 10.5 Days): BLQ (BLQ = BELOW the LLOQ, lower lmit of quantification = 5 nM dexamethasone) | DEX conc, individual mouse ([1]; plasma, repeated study, male, VD3 Def, 3.5 Days): 9.88 nM and 17.04 nM and 5.32 nM and 11.52 nM and 38.23 nM and BLQ (BLQ = BELOW the LLOQ, lower lmit of quantification = 5 nM dexamethasone) and 6.47 nM and 59.55 nM and 8.86 nM and 29.02 nM and 4.39 nM and 6.91 nM | DEX conc, individual mouse ([1]; plasma, repeated study, male, VD3 Def, 10.5 Days): 19.46 nM and 37.99 nM and 211.48 nM and 27.59 nM and 28.34 nM and 9.45 nM and 27.41 nM | DEX conc, individual mouse ([1]; plasma, repeated study, male, VD3 Def, 17.5 Days): 12.05 nM and 27.36 nM | DEX conc, individual mouse ([1]; plasma, repeated study, male, VD3 Suf, 3.5 Days): BLQ (BLQ = BELOW the LLOQ, lower lmit of quantification = 5 nM dexamethasone) | DEX conc, individual mouse ([1]; plasma, repeated study, male, VD3 Suf, 10.5 Days): BLQ (BLQ = BELOW the LLOQ, lower lmit of quantification = 5 nM dexamethasone) | DEX conc, individual mouse ([1]; plasma, repeated study, male, VD3 Suf, 17.5 Days): 22.35 nM and 12.66 nM and 32.4 nM and 32.15 nM and 26.39 nM | % BLQ ([1]; share of plasma samples below LLOQ 5 nM, male, VD3 Suf, 3.5 Days): 67% | EC50 (PXR; printed in Fig 9, ref Kliewer SA, et al. Cell. 1998): 30 µM | Kd (PXR; relatively weak PXR agonist, no reference given, read-out: Kd as PXR agonist): ~30 µM | estimated Cgut (gut concentration) ([2]; single oral gavage): 200 µM | higher CL/F in males vs females ([2]; single oral gavage 2 mg/kg DEX phosphate, regardless of VD3 status): ~ 25% | lower AUC values in males vs females ([2]; single oral gavage 2 mg/kg dexamethasone phosphate, 14 weeks): approximately 25% | apparent oral clearance (CL/F), male vs female ([2]; single oral gavage, regardless of VD3 status): 1.26 fold | DV (Dex oral gavage PK raw data) ([2]; time 0.25, SEX:F, VD3_DEF:0): 907.64 and 982.88 | DV (Dex oral gavage PK raw data) ([2]; time 0.25, SEX:M, VD3_DEF:0): 359.52 and 381.14 and 918.28 and 295.91 | DV (Dex oral gavage PK raw data) ([2]; time 0.5, SEX:F, VD3_DEF:0): 300.45 and 875.91 and 827.78 and 1011.08 and 796.28 | DV (Dex oral gavage PK raw data) ([2]; time 0.5, SEX:M, VD3_DEF:0): 854.61 and 443.3 and 391.17 and 812.36 and 581.49 | DV (Dex oral gavage PK raw data) ([2]; time 0.75, SEX:F, VD3_DEF:0): 593 and 696.57 and 716.27 | DV (Dex oral gavage PK raw data) ([2]; time 0.75, SEX:M, VD3_DEF:0): 319 and 407.15 and 712.45 and 358.52 | DV (Dex oral gavage PK raw data) ([2]; time 1, SEX:F, VD3_DEF:0): 323.98 and 614.7 and 559.39 and 858.7 and 572.77 | DV (Dex oral gavage PK raw data) ([2]; time 1, SEX:M, VD3_DEF:0): 871.76 and 446.29 and 284.95 and 564.36 and 379.97 | DV (Dex oral gavage PK raw data) ([2]; time 1.5, SEX:F, VD3_DEF:0): 400.31 and 458.1 and 520.89 | DV (Dex oral gavage PK raw data) ([2]; time 1.5, SEX:M, VD3_DEF:0): 262.55 and 317.69 and 754.41 and 324.39 | DV (Dex oral gavage PK raw data) ([2]; time 2, SEX:F, VD3_DEF:0): 620.12 and 492.72 and 552.22 and 715.36 | DV (Dex oral gavage PK raw data) ([2]; time 2, SEX:M, VD3_DEF:0): 450.54 and 344.89 and 388.67 and 378.66 and 784.19 | DV (Dex oral gavage PK raw data) ([2]; time 2, SEX:M, VD3_DEF:1): 453.95 and 476.24 | DV (Dex oral gavage PK raw data) ([2]; time 4, SEX:F, VD3_DEF:0): 375.42 and 312.44 and 291.92 and 312.42 and 297.86 | DV (Dex oral gavage PK raw data) ([2]; time 4, SEX:M, VD3_DEF:0): 215.15 and 191.38 and 191.07 and 239.97 and 623.74 | DV (Dex oral gavage PK raw data) ([2]; time 4, SEX:M, VD3_DEF:1): 214.6 and 240.73 and 185.34 | DV (Dex oral gavage PK raw data) ([2]; time 8, SEX:F, VD3_DEF:0): 121.36 and 89.26 and 221.1 and 152.45 and 67.95 | DV (Dex oral gavage PK raw data) ([2]; time 8, SEX:M, VD3_DEF:0): 74.87 and 61.36 and 52.11 and 112.04 and 269.34 | DV (Dex oral gavage PK raw data) ([2]; time 8, SEX:M, VD3_DEF:1): 66.26 and 72.8 | DV (Dex oral gavage PK raw data) ([2]; time 16, SEX:F, VD3_DEF:0): 29.97 and 65.92 and 14.35 and 7.95 and 53.43 | DV (Dex oral gavage PK raw data) ([2]; time 16, SEX:M, VD3_DEF:0): 18.43 and 25.62 and 92.79 and 13.68 and 19.85

Cc1nc(Nc2ncc(C(=O)Nc3c(C)cccc3Cl)s2)cc(N2CCN(CCO)CC2)n1 [dasatinib]
share of dasatinib metabolized by CYP3A4 (CYP3A4): 98% | Tmax [3]: 36 min | oral bioavailability [4]: 27% | percentage of unchanged drug in the gastrointestinal tract [4]: 33%
